From US10265403B2, “Cyclic peptide” (priority 2013, dated 2019) come the findings set out here.

Where no end group is shown, it is not given here.

Data set [1] relates to Human dermal fibroblasts. Nature of the data set: Cell adhesion, proliferation and viability on coated substrates (PrestoBlue, Vybrant MTT, CyQUANT). Format: cell-based. To be noted: serum-free media, days 1, 4 and 8, 50 μL peptide 100 μM or protein 500 μg/mL. On the procedure:
Human dermal fibroblasts (Invitrogen, UK) were maintained in Medium 106 supplemented with low serum growth supplement (2% v/v) and antibiotics (10 μg/mL gentamicin; 0.25 μg/mL amphotericin B) in […] culture flasks. The cells were incubated at 37° C., 5% CO2 and 95% air humidity. At 70-80% confluency cells were washed with PBS to remove the unattached cells and then adhered cells were trypsinised (trypsin/EDTA 0.025:0.01%) followed by trypsin neutraliser (all from Invitrogen, UK). The harvested cells (of passages 3 to 5) were seeded for subsequent cellular analysis.
Cells were seeded at a density of 4×10^3 in serum-free media for cell viability and proliferation assays on substrates (sterile 96 well plates) coated with 50 μL of peptide (100 μM) or protein (500 μg/mL). For cytoskeletal visualisation Nunc LabTek chambered cover glass slides were used as substrates.
Cell proliferation rates and viability were determined by PrestoBlue®, Vybrant® MTT and CyQUANT® assays on day 1, 4 and 8 (all from Life Technologies, UK).
PrestoBlue® reagent is supplied as a 10× solution and added to each well by diluting (1×) in the serum-free culture medium. The cells were incubated for 30 minutes at 37° C. in 200 μL of the reagent. The fluorescence of each well was measured with a microplate reader (BMG Labtech, Germany), with 544 nm excitation and 590 nm emission filters. Standard calibration curves were generated by plotting measured fluorescence values versus cell numbers. […]
Vybrant® MTT assay: For the colourimetric 3-(4, 5-dimethylthiazole-2-yl)-2, 5-diphenyl tetrazolium bromide (MTT) cell proliferation assay, the cell medium was removed from each well at the set time points and washed with PBS followed by the addition of MTT solution (10 μL, 5 mg/mL in PBS) and serum-free fresh media (100 μL). […] The absorbance intensity was measured by a microplate reader at 540 nm with a reference wavelength at 640 nm. Standard calibration curves were generated by plotting measured absorbance values versus cell numbers. […]

Data set [2] has as its system E. coli. Put plainly: Bacterial adhesion / biofilm formation on coated substrates (Live/Dead stain, PrestoBlue). The data set is classed as cell-based. As to conditions: 16-hour incubations; E. coli and B. subtilis (FIGS. 12b, 13b, 13c, 14). On the procedure:
Bacterial inocula (E. coli and B. subtilis) were prepared in Mueller Hinton broth at A600 of 0.6, then diluted to 1:100 in the pre-warmed medium, and 50 μL of this dilution was added to each well of the coated Nunc LabTek chambered cover glass slides. Formed biofilms were analysed after 16-hour incubations using a Live/Dead BacLight bacterial viability stain kit (Molecular Probes, UK), and were visualised by a confocal laser scanning microscope (CLSM) (FV-1000, Olympus). Bacterial viability was quantitatively probed by using PrestoBlue® reagent, as used for the cell viability and proliferation assay. E. coli was seeded at the same density as above in sterile bare and coated 96-well plates. After 16 hours incubation at 37° C. (or 30° C. for B. subtilis), the biofilm formed on each substrate was carefully washed with 10 mM Tris-HCl buffer, pH 7, to remove bacteria remaining in suspension. Two hundred microliters of PrestoBlue® reagent diluted in Mueller Hinton broth were added to each well and incubated for 30 minutes at 37° C. The fluorescence of each well was measured using a microplate reader with 544 nm excitation and 590 nm emission filters.
FIG. 13b and FIG. 13c are fluorescence micrographs and total viable cell counts respectively determined by PrestoBlue® of E. coli after 16-hour incubations on different substrates. […]

Data set [3] concerns Human dermal fibroblasts. Nature of the data set: Impedance measurements (xCELLigence) of cells on coated electrodes. Format: cell-based. To be noted: serum-depleted medium. On the procedure: Comparative impedance measurements using cell-electrode interfaces, which allow evaluating changes in effective impedance (resistance) to applied alternating current, provided further support for different cell proliferation patterns that were measured continuously in real time. Typically, cell attachments to electrode surfaces give impedance increases, whereas changes in cell morphology (cell rounding-up and detachment) cause impedance drops. Resistance traces that can correspond to different events including changes in cellular morphology, patterning and growth rates were recorded as a function of time, with cells seeded in a serum-depleted medium to avoid interferences by serum, which can modulate same signaling pathways for cell adhesion.
Impedance measurements were performed using an xCELLigence system according to the manufacturer's protocols (Roche, UK; ACEA Biosciences, USA). Each electrode array comprises 16 wells, each of which was first coated with assembled SaNet and protein solutions and background measurements were carried out prior to cell seeding. […] The electrical impedance of each well was automatically recorded every 5 min for the first 24 hours and then every 30 min till the end, and were normalised and expressed using the proprietary software as normalised cell index. Bacterial adhesions were measured every 5 min for over 15 hours. […]

Data set [4] concerns P. aeroginosa (ATCC 27853). The data set is classed as cell-based, P. aeruginosa. As to conditions: ATCC 27853, 24 h. On the procedure:
(§1) Minimum inhibitory concentrations (MIC) were determined by broth microdilution on P. aeruginosa ATCC 27853, E. coli K12, S. aureus ATCC 25723, M. luteus NCIMB 13267 and B. subtilis ATCC 6633 according to the Clinical and Laboratory Standards Institute. Typically, 100 μl of 0.5-1×10^6 CFU per ml of each bacterium in Mueller Hinton broth was incubated in 96 well plates with […] of serial two-fold dilutions of the peptides (final concentrations, 100-0 mM) at 37° C. (or 30° C. for B. subtilis and M. luteus) on a 3D orbital shaker. The absorbance was measured after peptide addition at 600 nm using a Victor 2 plate reader (Perkin Elmer). Minimum inhibitory concentrations (MICs) were defined as the lowest peptide concentration showing growth inhibition after 24 hours at 37° C. All tests were done in triplicate.

In data set [5] the test system is E. coli (K12). Format: cell-based. As to conditions: K12, 24 h. On the procedure: as §1
For data set [6], the system named is M. luteus. The data set is classed as cell-based. As to conditions: 24 h. On the procedure: as §1
The subject of data set [7] is B. subtilis (ATCC 6633). Format: cell-based. To be noted: ATCC 6633, 24 h. On the procedure: as §1
Data set [8] in a line: Haemolysis of human erythrocytes. Format: cell-based. As to conditions: 10% (v/v) suspension, pH 7.2; 50% lysis of human erythrocytes, 1 hour, room temperature; read-out: LC50. On the procedure:
(§2) Haemolysis was determined by incubating 10% (v/v) suspension of human erythrocytes with peptides. Erythrocytes were rinsed 4 times in 10 mM PBS, pH 7.2, by repeated centrifugation and re-suspension (3 min, 3000×g). Erythrocytes were incubated at room temperature for 1 hour in either deionised water (fully haemolysed control), PBS or with peptide in PBS. After centrifugation at 10 000 g for 5 min, the supernatant was separated from the pellet and the absorbance measured at 550 nm. Absorbance of the suspension treated with deionised water defined complete haemolysis. The values given in Table 2 correspond to concentrations needed to kill a half of the sample population (50% lysis of human erythrocytes) and are expressed as median lethal concentrations—LC50. All tests were done in triplicate.

Data set [9] has as its system Human erythrocytes. Nature of the data set: Haemolysis of human erythrocytes. Format: cell-based. To be noted: in words. On the procedure: as §2
In data set [10] the test system is S. aureus (ATCC 6538). The data set is classed as cell-based. As to conditions: ATCC 6538, 24 h.

Regarding “KIAALKQKIAALKYEIAALE-am (KIAALKQKIAALKYEIAALE-NH2) [D2, individual linear second domain, negative non-assembling peptide control]”, the “cell adhesion and proliferation (total cells / total viable cells)” value in data set [1] is “only negligible cellular responses”.
For the substance collagen, in [2], the “resistance against bacterial adhesion / biofilm formation” value is given as “did not resist biofilm formation”. Besides, the “cell adhesion and proliferation (total cells / total viable cells)” value in data set [1] is on record as “comparable values”. Besides, the “normalised impedance after second medium inoculation” value in data set [3] is “a gradually ascending phase in impedance”.
By MIC is commonly meant the lowest concentration found to suppress growth. Read a low MIC as a more susceptible organism. “cyclo(AALEGGGEIAALEQEIAALEYKIAALKGGGKIAALKQKIAALKQEI) [SaNet]”: the MIC was over 100 µM in [4]; 100 µM in data set [5]; under 50 µM in [6]; 50 µM in data set [7]; over 100 µM in [10]. Further, the CC50 at 1 hour in data set [8] was over 600 µM. Moreover, in [9], the haemolytic activity entry is reported as “negligible”.
On to fibronectin, for which, in data set [2], the “resistance against bacterial adhesion / biofilm formation” value was “did not resist biofilm formation”. Besides, the “cell adhesion and proliferation (total cells / total viable cells)” value in [1] is “comparable values”. In addition, in data set [3], the “normalised impedance after second medium inoculation” value is reported as “steady decays in resistance curves”.
